Test [1] has as its system Female Wistar rats. Briefly: Serum total cholesterol (TC) and total triglyceride (TG) detection. As to conditions: rat, in vivo. Here is the method:
Female Wistar rats weighing 220-230 g were selected, and all rats were free to eat. One week later, without any intervention, they were randomly divided into control group CK (n=10; Placebo); Model group MD (n=10; Placebo); Experimental group A (n=10; Ergothioneine 2.25 mg/kg/d); Experimental group B (n=10; Ergothioneine 2.25 mg/kg/d+Pyrroloquinoline quinone 1.8 mg/kg/d); Experimental group C (n=10; Ergothioneine 2.25 mg/kg/d+Pyrroloquinoline quinone 1.8 mg/kg/d+Oenothera biennis 18 mg/kg/d+inositol 9 mg/kg/d). Four groups of rats were injected with testosterone propionate (10 mg/kg, once a day for 6 weeks) and olive oil continuously. Administration was performed by gavage. Gavage intervention in each group lasted for 8 weeks. […] OGTT, insulin, HOMA-IR and blood lipid were measured in each group at the last week of gavage. After fasting for 16 h, fasting blood glucose (0 min) was measured. […] At each time point (0 min, 30 min, 60 min, 120 min), the blood glucose of rats was measured by glucose oxidase method. […] Serum total cholesterol (TC) and total triglyceride (TG) were detected by total cholesterol detection kit and triglyceride detection kit. Graphpad 8.0 software was used to analyze the data, and the result data was expressed as standard deviation (x±s), and the significance was analyzed by one-way ANOVA test.

Test [2] relates to Female Wistar rats. Nature of the test: Serum hormone determination (T, E2, LH, FSH) by ELISA in rats injected with testosterone propionate. In kind it is in vivo. As to conditions: after 8 weeks of gavage intervention. Here is the method:
Female Wistar rats weighing 220-230 g were selected, and all rats were free to eat. One week later, without any intervention, they were randomly divided into control group CK (n=10; Placebo); Model group MD (n=10; Placebo); Experimental group A (n=10; Ergothioneine 2.25 mg/kg/d); Experimental group B (n=10; Ergothioneine 2.25 mg/kg/d+Pyrroloquinoline quinone 1.8 mg/kg/d); Experimental group C (n=10; Ergothioneine 2.25 mg/kg/d+Pyrroloquinoline quinone 1.8 mg/kg/d+Oenothera biennis 18 mg/kg/d+inositol 9 mg/kg/d). Four groups of rats were injected with testosterone propionate (10 mg/kg, once a day for 6 weeks) and olive oil continuously. Administration was performed by gavage. Gavage intervention in each group lasted for 8 weeks. Finally, the rats were anesthetized with 1% pentobarbital sodium, and the rats were killed when they were estrus after fasting for 16 h. Blood was collected through abdominal aorta, and the serum was taken after centrifugation at 4° C. for 15 min at a speed of 1000 g. Hormone determination: Serum total testosterone T, luteinizing hormone LH, follicle stimulating hormone FSH and estradiol E2 were determined by ELISA. […] Graphpad 8.0 software was used to analyze the data, and the result data was expressed as standard deviation (x±s), and the significance was analyzed by one-way ANOVA test.
On the technique in general: ELISA stands for enzyme-linked immunosorbent assay.

For test [3], the system named is Female Wistar rats. Nature of the test: HOMA-IR index from fasting insulin and fasting blood glucose. The conditions noted are these: calculated from fasting blood glucose and fasting insulin; Model group 12.5. In kind it is in vivo. How it is done:
(§1) Female Wistar rats weighing 220-230 g were selected, and all rats were free to eat. One week later, without any intervention, they were randomly divided into control group CK (n=10; Placebo); Model group MD (n=10; Placebo); Experimental group A (n=10; Ergothioneine 2.25 mg/kg/d); Experimental group B (n=10; Ergothioneine 2.25 mg/kg/d+Pyrroloquinoline quinone 1.8 mg/kg/d); Experimental group C (n=10; Ergothioneine 2.25 mg/kg/d+Pyrroloquinoline quinone 1.8 mg/kg/d+Oenothera biennis 18 mg/kg/d+inositol 9 mg/kg/d). Four groups of rats were injected with testosterone propionate (10 mg/kg, once a day for 6 weeks) and olive oil continuously. Administration was performed by gavage.
(§2) OGTT, insulin, HOMA-IR and blood lipid were measured in each group at the last week of gavage. After fasting for 16 h, fasting blood glucose (0 min) was measured. Subsequently, rats were intraperitoneally injected with 50% glucose solution (2 g/kg). At each time point (0 min, 30 min, 60 min, 120 min), the blood glucose of rats was measured by glucose oxidase method. […] Serum total cholesterol (TC) and total triglyceride (TG) were detected by total cholesterol detection kit and triglyceride detection kit.
(§3) Graphpad 8.0 software was used to analyze the data, and the result data was expressed as standard deviation (x±s), and the significance was analyzed by one-way ANOVA test.

Test [4] deals with Female Wistar rats. Briefly: OGTT blood glucose by glucose oxidase method in rats injected with testosterone propionate. In kind it is in vivo. The conditions noted are these: different time points within 120 min, last week of gavage. Here is the method: as §1, §2, §3

In the case of `C[N+](C)(C)[C@@H](Cc1c[nH]c(=S)[nH]1)C(=O)[O-]` [Experimental group A, Ergothioneine], in the test with Female Wistar rats [1], the “content of TC in serum compared with the Model group” value is given as “significantly reduce” and the “content of TG in serum compared with the Model group” value is recorded as “significantly reduce”. In the test on Female Wistar rats [2], the “serum E2 compared with the Model group” value was “decreased significantly” and the “serum T compared with the Model group” value was “decreased significantly”. Besides, in the test with Female Wistar rats [3], the HMOA-IR index was 11.3. For the same compound, in the test with Female Wistar rats [4], the “blood glucose levels compared with the Model group” value was “decreased significantly”.

These data come from US20260115183A1, “METHOD AND COMPOSITION FOR PROTECTING OR IMPROVING OVARIAN FUNCTION IN MAMMALS” (NANJING NUTRABUILDING BIO-TECH CO., LTD., priority 2023, published 2026).
